The results in this text go back to patent publication US20260317324A1, “BIFUNCTIONAL COMPOUNDS FOR DEGRADING BRAF VIA UBIQUITIN PROTEOSOME PATHWAY” (Nurix Therapeutics, Inc., priority 2023, published 2026).

Holding throughout (type): cell-based
In one assay the target is T1, BRAF V600E (Homo sapiens, UniProt P15056, V600E).
T1 construct: endogenous C-terminal HiBiT fusion tag on BRAF V600E allele; endogenous in cells; host or cells: A375 clone 1F10 (CRISPR-Cas9 knock-in of the HiBiT tag; parental A375 from ATCC)
T1 sequence (P15056 whole entry V600E, the tested form may be a part): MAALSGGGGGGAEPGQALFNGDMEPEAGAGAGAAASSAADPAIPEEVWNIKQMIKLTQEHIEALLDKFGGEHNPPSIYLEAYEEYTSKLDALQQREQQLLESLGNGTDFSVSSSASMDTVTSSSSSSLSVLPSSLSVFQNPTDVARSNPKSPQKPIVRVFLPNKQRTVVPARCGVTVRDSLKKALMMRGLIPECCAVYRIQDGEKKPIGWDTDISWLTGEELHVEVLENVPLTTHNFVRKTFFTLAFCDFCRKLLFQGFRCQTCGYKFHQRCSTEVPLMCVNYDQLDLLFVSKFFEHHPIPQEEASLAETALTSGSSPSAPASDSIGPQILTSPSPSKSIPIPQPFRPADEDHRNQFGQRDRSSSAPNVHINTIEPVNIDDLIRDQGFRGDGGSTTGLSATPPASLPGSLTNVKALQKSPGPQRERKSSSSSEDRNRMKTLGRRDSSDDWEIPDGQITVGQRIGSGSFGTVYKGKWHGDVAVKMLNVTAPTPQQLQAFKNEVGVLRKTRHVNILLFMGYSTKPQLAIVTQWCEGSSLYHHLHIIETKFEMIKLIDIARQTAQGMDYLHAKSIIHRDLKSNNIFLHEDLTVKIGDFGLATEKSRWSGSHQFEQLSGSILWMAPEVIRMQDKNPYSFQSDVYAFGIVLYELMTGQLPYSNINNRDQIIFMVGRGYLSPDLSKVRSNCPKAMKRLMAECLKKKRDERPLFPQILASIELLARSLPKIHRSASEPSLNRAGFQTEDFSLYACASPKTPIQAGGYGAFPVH
In words: BRAF HiBiT degradation assay, C-terminal HiBiT-tagged BRAF V600E A375 cells (clone 1F10), Nano-Glo HiBiT Lytic assay. Conditions: for Dmax: A-375. Put shortly: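 Degradation is measured as loss of HiBiT signal from BRAF V600E tagged at its native locus in A375 cells. Doses span 1 μM to 0.01 nM in half-log steps, in duplicate. Percent remaining is calculated against DMSO controls after subtracting untagged A375 background, and curve fitting yields DC50 and observed Dmax.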

The next assay addresses T2, BRAF G466V (Homo sapiens, UniProt P15056, G466V).
T2 construct: Horizon Discovery (HCT-116 BRAF−/− cells); host or cells: HCT-116 BRAF−/− cells, clone 8, lentiviral transduction
In words: BRAF HiBiT degradation assay, C-terminal HiBiT-tagged BRAF G466V overexpressed in HCT-116 BRAF−/− cells (clone 8), Nano-Glo HiBiT Lytic assay. The method, boiled down:
(§1)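 First, the stable HiBiT-tagged cells were plated and incubated for 24 h. Next, compound was added in duplicate as an 11-point series with a 1 μM top concentration. Lytic detection followed, with DMSO-treated parental cells used for background. Finally, DC50 and Obs. Dmax relative to DMSO were derived from the % protein remaining curves.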

The target in the next assay is T3, BRAF G469A (Homo sapiens, UniProt P15056, G469A).
T3 construct: Horizon Discovery (HCT-116 BRAF−/− cells); host or cells: HCT-116 BRAF−/− cells, clone 34, lentiviral transduction
T3 sequence (P15056 whole entry G469A): as the sequence (P15056 whole entry V600E, the tested form may be a part) above, with G469A, E600V counted along it
In words: BRAF HiBiT degradation assay, C-terminal HiBiT-tagged BRAF G469A overexpressed in HCT-116 BRAF−/− cells (clone 34), Nano-Glo HiBiT Lytic assay. The method, boiled down: as §1

Another assay concerns the target T4, BRAF D594G (Homo sapiens, UniProt P15056, D594G).
T4 construct: Horizon Discovery (HCT-116 BRAF−/− cells); host or cells: HCT-116 BRAF−/− cells, clone 63, lentiviral transduction
Briefly: BRAF HiBiT degradation assay, C-terminal HiBiT-tagged BRAF D594G overexpressed in HCT-116 BRAF−/− cells (clone 63), Nano-Glo HiBiT Lytic assay. The method, boiled down: as §1
On the technique in general: With HiBiT, luminescence reflects the tagged protein that the partner subunit can reach.

The mark [1] stands for this setting: A375 (BRAF V600E), DC50 at 50%: fitted conc. at Y=50.
Setting [2] is: A375 (BRAF V600E), percentage protein degraded at maximal compound effect relative to DMSO.
Setting [3] is: BRAF G466V, DC50 at 50%: fitted conc. at Y=50.
Where [4] appears, read: HCT-116, BRAF G466V, percentage protein degraded at maximal compound effect relative to DMSO.
Setting [5] is: Class 2, BRAF G469A, DC50 at 50%: fitted conc. at Y=50.
Where [6] appears, read: HCT-116, Class 2, BRAF G469A, percentage protein degraded at maximal compound effect relative to DMSO.
Setting [7] is: BRAF D594G, DC50 at 50%: fitted conc. at Y=50.
Setting [8] is: HCT-116, BRAF D594G, percentage protein degraded at maximal compound effect relative to DMSO.
Where [9] appears, read: A375 (BRAF V600E, Class 1), DC50 at 50% degradation.
The mark [10] stands for this setting: A375 (BRAF V600E, Class 1), observed Dmax, % protein degraded relative to DMSO control.
Setting [11] is: BRAF G466V (Class 3), HCT-116 BRAF−/− cells, DC50 at 50% degradation.
Setting [12] is: BRAF G466V (Class 3), HCT-116 BRAF−/− cells, observed Dmax relative to DMSO control.
Setting [13] is: BRAF G469A (Class 2), HCT-116 BRAF−/− cells, DC50 at 50% degradation.
[14] abbreviates: BRAF G469A (Class 2), HCT-116 BRAF−/− cells, observed Dmax relative to DMSO control.
[15] abbreviates: BRAF D594G (Class 3), HCT-116 BRAF−/− cells, DC50 at 50% degradation.
The mark [16] stands for this setting: BRAF D594G (Class 3), HCT-116 BRAF−/− cells, observed Dmax relative to DMSO control.

T2 sequence (P15056 whole entry G466V): as the sequence (P15056 whole entry V600E, the tested form may be a part) above, with G466V, E600V counted along it
T4 sequence (P15056 whole entry D594G): as the sequence (P15056 whole entry V600E, the tested form may be a part) above, with D594G, E600V counted along it

In the case of `CCCS(=O)(=O)Nc1cccc(-c2nc(C(C)(C)C)sc2-c2ccnc(Nc3cccc(OC4CCN(C(=O)C[C@@H]5CCN(c6ccc(C7CCC(=O)NC7=O)cc6)C5)CC4)c3)n2)c1F` (mixture of isomers) [Compound 92, N-(3-{2-tert-butyl-5-[2-({3-[(1-{2-[(3S)-1-{4-[(3RS)-2,6-dioxopiperidin-3-yl]phenyl}pyrrolidin-3-yl]acetyl}piperidin-4-yl)oxy]phenyl}amino)pyrimidin-4-yl]-1,3-thiazol-4-yl}-2-fluorophenyl)propane-1-sulfonamide], the DC50 at BRAF V600E (setting [1]), on BRAF G466V (setting [3]), on BRAF G469A (setting [5]) and on BRAF D594G (setting [7]) was > 500 nM in each case. The Dmax – broadly, the largest share of the target that was removed – on BRAF V600E (setting [2]) is 30 to 70%; at BRAF G466V (setting [4]), < 30%; at BRAF G469A (setting [6]), < 30%; on BRAF D594G (setting [8]) it was < 30%.
For the compound `O=C1CCC(c2ccc(N3CCC(CN4CCN(c5ccc(-n6cc(-c7cc(Cl)cc(NS(=O)(=O)N8CC[C@@H](F)C8)c7F)c(-c7ccncc7)n6)c(F)c5)CC4)CC3)nc2)C(=O)N1` (mixture of isomers) [Compound 335, (3R)—N-{5-chloro-3-[1-(4-{4-[(1-{5-[(3RS)-2,6-dioxopiperidin-3-yl]pyridin-2-yl}piperidin-4-yl)methyl]piperazin-1-yl}-2-fluorophenyl)-3-(pyridin-4-yl)-1H-pyrazol-4-yl]-2-fluorophenyl}-3-fluoropyrrolidine-1-sulfonamide], the DC50 – broadly, the concentration giving 50% degradation – on BRAF V600E (setting [9]) is < 10 nM; at BRAF G466V (setting [11]), < 10 nM; at BRAF G469A (setting [13]), 10 to 50 nM; at BRAF D594G (setting [15]) it was < 10 nM. Further, the Dmax on BRAF V600E (setting [10]), at BRAF G466V (setting [12]), at BRAF G469A (setting [14]) and at BRAF D594G (setting [16]) was > 70% each time.
Take `O=C1CCC(c2ccc(N3CCC(CN4CCN(c5cnc(-n6cc(-c7cc(Cl)cc(NS(=O)(=O)N8CCCC8)c7F)c(-c7ccncc7)n6)nc5)CC4)CC3)nc2)C(=O)N1` (racemic) [Compound 359, Rac-N-{5-chloro-3-[1-(5-{4-[(1-{5-[(3R)-2,6-dioxopiperidin-3-yl]pyridin-2-yl}piperidin-4-yl)methyl]piperazin-1-yl}pyrimidin-2-yl)-3-(pyridin-4-yl)-1H-pyrazol-4-yl]-2-fluorophenyl}pyrrolidine-1-sulfonamide]: the DC50 at BRAF V600E (setting [9]), on BRAF G466V (setting [11]), at BRAF G469A (setting [13]) and on BRAF D594G (setting [15]) was < 10 nM each time. Further, the Dmax at BRAF V600E (setting [10]), on BRAF G466V (setting [12]), at BRAF G469A (setting [14]) and at BRAF D594G (setting [16]) was > 70% in each case.
`CCN(C)S(=O)(=O)Nc1cccc(-c2nc(C(C)(C)C)sc2-c2ccnc(Nc3ccc(N4CCN(CC5CCN(c6ccc([C@@H]7CCC(=O)NC7=O)cc6)CC5)CC4)cn3)n2)c1F` [Compound 127, (3S)-3-{4-[4-({4-[6-({4-[2-tert-butyl-4-(3-{[ethyl(methyl)sulfamoyl]amino}-2-fluorophenyl)-1,3-thiazol-5-yl]pyrimidin-2-yl}amino)pyridin-3-yl]piperazin-1-yl}methyl)piperidin-1-yl]phenyl}piperidine-2,6-dione]: the DC50 at BRAF V600E (setting [1]) was 10 to 50 nM; on BRAF G466V (setting [3]), 10 to 50 nM; at BRAF G469A (setting [5]), 10 to 50 nM; at BRAF D594G (setting [7]), < 10 nM. The Dmax at BRAF V600E (setting [2]) is > 70%; on BRAF G466V (setting [4]), 30 to 70%; on BRAF G469A (setting [6]), 30 to 70%; on BRAF D594G (setting [8]) it was 30 to 70%.
Consider `CCCS(=O)(=O)Nc1cccc(-c2nc(C(C)(C)C)sc2-c2ccnc(Nc3ccc(N4CCN(C(=O)C5CCN(c6ccc(C7CCC(=O)NC7=O)cc6)CC5)CC4)cc3)n2)c1F` (racemic) [Compound 38, Rac-N-(3-{2-tert-butyl-5-[2-({4-[4-(1-{4-[(3R)-2,6-dioxopiperidin-3-yl]phenyl}piperidine-4-carbonyl)piperazin-1-yl]phenyl}amino)pyrimidin-4-yl]-1,3-thiazol-4-yl}-2-fluorophenyl)propane-1-sulfonamide], for which the DC50 on BRAF V600E (setting [1]) is < 10 nM; at BRAF G466V (setting [3]) it was > 500 nM; on BRAF G469A (setting [5]), 10 to 50 nM; at BRAF D594G (setting [7]) it was > 500 nM. Also, the Dmax at BRAF V600E (setting [2]) was > 70%; at BRAF G466V (setting [4]), < 30%; on BRAF G469A (setting [6]) it was < 30%; at BRAF D594G (setting [8]), 30 to 70%.
As to `O=C1CCN(c2ccc(N3CCC(CN4CCN(c5ccc(-n6cc(-c7cc(Cl)cc(NS(=O)(=O)N8CCCC8)c7F)c(-c7ccncc7)n6)cc5F)CC4)CC3)cc2)C(=O)N1` [Compound 361, N-[5-chloro-3-(1-{4-[4-({1-[4-(2,4-dioxo-1,3-diazinan-1-yl)phenyl]piperidin-4-yl}methyl)piperazin-1-yl]-3-fluorophenyl}-3-(pyridin-4-yl)-1H-pyrazol-4-yl)-2-fluorophenyl]pyrrolidine-1-sulfonamide], the DC50 was < 10 nM on BRAF V600E (setting [9]), < 10 nM at BRAF G466V (setting [11]), > 500 nM on BRAF G469A (setting [13]) and < 10 nM at BRAF D594G (setting [15]). The Dmax on BRAF V600E (setting [10]) is > 70%; at BRAF G466V (setting [12]), > 70%; on BRAF G469A (setting [14]), 30 to 70%; at BRAF D594G (setting [16]) it was 30 to 70%.
In the case of `CCCS(=O)(=O)Nc1cccc(-c2nc(C(C)(C)C)sc2-c2ccnc(Nc3cnn(C4CCN(C(=O)[C@H]5CC[C@H](Oc6ccc(C7CCC(=O)NC7=O)cn6)CC5)CC4)c3)n2)c1F` (mixture of isomers) [Compound 109, N-[3-(2-tert-butyl-5-{2-[(1-{1-[(1r,4r)-4-({5-[(3RS)-2,6-dioxopiperidin-3-yl]pyridin-2-yl}oxy)cyclohexanecarbonyl]piperidin-4-yl}-1H-pyrazol-4-yl)amino]pyrimidin-4-yl}-1,3-thiazol-4-yl)-2-fluorophenyl]propane-1-sulfonamide], the DC50 at BRAF V600E (setting [1]) is < 10 nM; at BRAF G466V (setting [3]), > 500 nM; on BRAF G469A (setting [5]), > 500 nM; at BRAF D594G (setting [7]) it was > 500 nM. For the same compound, the Dmax is > 70% at BRAF V600E (setting [2]), < 30% on BRAF G466V (setting [4]), < 30% on BRAF G469A (setting [6]) and < 30% at BRAF D594G (setting [8]).
On to `CCCS(=O)(=O)Nc1cccc(-c2nc(C3CCN(C4CN(C(=O)CC5CCN(c6ccc(C7CCC(=O)NC7=O)cc6)CC5)C4)CC3)sc2-c2ccnc(N)n2)c1F` (racemic) [Compound 215, Rac-N-{3-[5-(2-aminopyrimidin-4-yl)-2-(1-{1-[2-(1-{4-[(3R)-2,6-dioxopiperidin-3-yl]phenyl}piperidin-4-yl)acetyl]azetidin-3-yl}piperidin-4-yl)-1,3-thiazol-4-yl]-2-fluorophenyl}propane-1-sulfonamide], for which the DC50 on BRAF V600E (setting [1]) was 10 to 50 nM; at BRAF G466V (setting [3]), > 500 nM; on BRAF G469A (setting [5]) it was > 500 nM; at BRAF D594G (setting [7]), > 500 nM. The Dmax on BRAF V600E (setting [2]) was > 70%; on BRAF G466V (setting [4]), < 30%; on BRAF G469A (setting [6]), < 30%; at BRAF D594G (setting [8]), < 30%.
In the case of `CCCS(=O)(=O)Nc1cccc(-c2nc(C3CCN(C(=O)C4CCN(C(=O)CC5CCN(c6ccc(C7CCC(=O)NC7=O)cn6)CC5)CC4)CC3)sc2-c2ccnc(N)n2)c1F` (racemic) [Compound 203, Rac-N-{3-[5-(2-aminopyrimidin-4-yl)-2-(1-{1-[2-(1-{5-[(3R)-2,6-dioxopiperidin-3-yl]pyridin-2-yl}piperidin-4-yl)acetyl]piperidine-4-carbonyl}piperidin-4-yl)-1,3-thiazol-4-yl]-2-fluorophenyl}propane-1-sulfonamide], the DC50 was < 10 nM at BRAF V600E (setting [1]), < 10 nM at BRAF G466V (setting [3]), > 500 nM on BRAF G469A (setting [5]) and < 10 nM on BRAF D594G (setting [7]). In addition, the Dmax was > 70% on BRAF V600E (setting [2]), > 70% on BRAF G466V (setting [4]), 30 to 70% at BRAF G469A (setting [6]) and 30 to 70% on BRAF D594G (setting [8]).
